For 45 molecules, EC50 results are on record in patent US10774053B2, “HIV protease inhibitors” (Gilead Sciences, Inc., priority 2017, dated 2020).

Where two headings read alike, the source gives them in different places.

This experiment concerns HIV-1 (IIIB) in MT-4 cells. Briefly: microbe, parasite or virus in culture. The class given is cell-based.
The mark [1] stands for this setting: Human immunodeficiency virus 1, IIIB, MT4, MT-4 cells, HIV-1, read-out: MT4 EC50.

Consider `CC(C)(C)C[C@]1(c2ccc(-c3ncccn3)cc2)NC(=N)N([C@H](COC(=O)NC2(C(F)(F)F)CC2)c2ccc(Cl)c(-n3ncnc3C(F)F)c2)C1=O` [Compound 187], for which, under setting [1], the EC50 (commonly the concentration needed to bring the measured effect to its halfway point) stood at 11.6 nM.
The same measure, in the same setting: the result for `CC(C)(C)C[C@]1(c2ccc(-c3cnn(C(F)F)c3)cc2)NC(=N)N([C@H](COC(=O)NC(C)(C)C)c2ccc(Cl)c(-n3ncnc3C(F)F)c2)C1=O` [Compound 183] reads 12 nM.
Same read-out and setting: the result for `CC(C)(C)C[C@]1(c2ccc3nc(C4CC4)ccc3c2)NC(=N)N([C@H](COC(=O)NC2(C(F)(F)F)CC2)c2ccc(Cl)c(-n3ncnc3C(F)F)c2)C1=O` [Compound 353] reads 8.59 nM; that for `CC(C)(C)C[C@]1(c2ccc(-c3cnn(C(F)F)c3)cc2)NC(=N)N([C@H](COC(=O)NC(C)(C)C)c2ccc(Cl)c(-n3cncn3)c2)C1=O` [Compound 241], 8.36 nM.
Still for that read-out and setting: the figure for `C[C@H](NC(=O)OC[C@H](c1ccc(Cl)c(-c2ncnn2C(F)F)c1)N1C(=N)N[C@](CC(C)(C)C)(c2ccc(-c3cnn(C4CC4)n3)cc2)C1=O)C(F)(F)F` [Compound 147] is 7.93 nM; for `CC(C)(C)C[C@]1(c2ccc(-c3cnn(C(F)F)c3)cc2)NC(=N)N([C@H](COC(=O)NC2(C)CC2)c2ccc(Cl)c(-n3cncn3)c2)C1=O` [Compound 237] it is 8.79 nM; for `CC(C)(C)C[C@]1(c2ccc(-c3cnn(C(F)F)c3)cc2F)NC(=N)N([C@H](COC(=O)NC(C)(C)C)c2ccc(Cl)c(-c3ncn[nH]3)c2)C1=O` [Compound 114] it is 40.6 nM.
`CC(C)(C)C[C@]1(c2ccc(-c3cnn(C4CC4)c3)c(F)c2F)NC(=N)N([C@H](COC(=O)NC2(C(F)(F)F)CC2)c2ccc(Cl)c(-c3ncnn3C(F)F)c2)C1=O` [Compound 136]: under setting [1], the EC50 is 7.91 nM.
Still for that read-out and setting: the result for `CC(C)(C)C[C@]1(c2ccc(-c3ccccn3)cc2)NC(=N)N([C@H](COC(=O)NC2(C(F)(F)F)CC2)c2ccc(Cl)c(-c3ncn[nH]3)c2)C1=O` [Compound 60] reads 28.5 nM; that for `CC(C)(C)C[C@]1(c2ccc(-c3ccccn3)cc2)NC(=N)N([C@H](COC(=O)NC2(C(F)(F)F)CC2)c2ccc(Cl)c(-n3ncnc3C(F)F)c2)C1=O` [Compound 190], 22.6 nM.
`CC(C)(C)C[C@]1(c2ccc(-c3ncns3)cc2F)NC(=N)N([C@H](COC(=O)NC2(C(F)(F)F)CC2)c2ccc(Cl)c(-n3ncnc3C(F)F)c2)C1=O` [Compound 284]: the EC50 under setting [1] was 11.4 nM.
Same read-out and setting: the result for `CC(C)(C)C[C@]1(c2ccc(-c3cnn(C(F)F)c3)cc2)NC(=N)N([C@H](COC(=O)NC2(C)CC2)c2cccc(-n3ncnc3C(F)F)c2)C1=O` [Compound 375] reads 30.8 nM; that for `CC(C)(C)C[C@]1(c2ccc(-c3cnn(C4CC4)n3)cc2)NC(=N)N([C@H](CNC(=O)CC(F)(F)F)c2ccc(Cl)c(-n3ncnc3C(F)F)c2)C1=O` [Compound 383], 9.7 nM.
On the same count and under the same terms, the result for `CC(C)(C)C[C@]1(c2ccc(-c3cnn(S(=O)(=O)C4CC4)c3)c(F)c2)NC(=N)N([C@H](COC(=O)NCC(F)(F)F)c2ccc(Cl)c(-n3ncnc3C(F)F)c2)C1=O` [Compound 302] reads 18.1 nM; that for `CC(C)(C)C[C@]1(c2ccc(-c3ccns3)cc2)NC(=N)N([C@H](COC(=O)NC2(C(F)(F)F)CC2)c2ccc(Cl)c(-n3cncn3)c2)C1=O` [Compound 321], 20.8 nM.
On the same count and under the same terms, the result for `COc1ccc([C@@]2(CC(C)(C)C)NC(=N)N([C@H](COC(=O)N(C)C)c3ccc(Cl)c(-c4ncccc4C)c3)C2=O)c(F)c1` [Compound 1] reads 64.6 nM; that for `CC(C)(C)C[C@]1(c2ccc(-c3cnccn3)cc2)NC(=N)N([C@H](COC(=O)NC2(C(F)(F)F)CC2)c2ccc(Cl)c(-c3ncn[nH]3)c2)C1=O` [Compound 27], 80.4 nM; that for `CC(C)(C)C[C@]1(c2ccc(-c3ncccn3)cc2)NC(=N)N([C@H](COC(=O)N2CC(F)(F)C2)c2ccc(Cl)c(-c3ncn[nH]3)c2)C1=O` [Compound 104], 33.5 nM.
As for `CC(C)(C)C[C@]1(c2ccc(-c3ccccn3)cc2)NC(=N)N([C@H](COC(=O)NC2(C(F)(F)F)CC2)c2ccc(Cl)c(-n3cncn3)c2)C1=O` [Compound 320], the 50% effective concentration (EC50) under setting [1] is 22.5 nM.
Regarding `[H]/N=C1\N[C@](CC(C)(C)C)(c2ccc(OC)cc2F)C(=O)N1[C@H](COC(=O)N(C)C)c1ccc(Cl)c(-c2ncccc2F)c1` [Compound 10], the EC50 (Human immunodeficiency virus 1, IIIB, MT4, read-out: MT4 EC50 (nM)) was 91.9 nM.
For the molecule `CC(C)(C)C[C@]1(c2ccc(-c3cnn(CC(F)F)n3)cc2F)NC(=N)N([C@H](COC(=O)NC2(C(F)(F)F)CC2)c2ccc(Cl)c(-c3ncnn3C(F)F)c2)C1=O` [Compound 151], the concentration giving a half-maximal response (EC50) under setting [1] stood at 7.55 nM.
Same read-out and setting: the figure for `CC(C)(C)C[C@]1(c2ccc(-c3cnc(C#N)nc3)cc2)NC(=N)N([C@H](COC(=O)NC2(C(F)(F)F)CC2)c2ccc(Cl)c(-c3ncnn3C(F)F)c2)C1=O` [Compound 118] is 16.4 nM; for `CC(C)(C)C[C@]1(c2ccc(-c3cnn(C(F)F)c3)cc2)NC(=N)N([C@H](COC(=O)NC2(C)CC2)c2ccc(Cl)c(-c3ncn[nH]3)c2)C1=O` [Compound 31] it is 51 nM; for `CC(C)(C)C[C@]1(c2ccc(-c3cnn(C(F)F)c3)cc2)NC(=N)N([C@H](COC(=O)NC2(C)CC2)c2ccc(Cl)c(-c3ncn(C(F)F)n3)c2)C1=O` [Compound 70] it is 29.4 nM.
As for `CC(C)(C)C[C@]1(c2ccc(-c3ccc4c(c3)OC(F)(F)O4)cc2)NC(=N)N([C@H](COC(=O)NC2(C(F)(F)F)CC2)c2ccc(Cl)c(-n3ncnc3C(F)F)c2)C1=O` [Compound 283], the EC50 under setting [1] amounted to 113 nM.
Regarding `CC(C)(C)C[C@]1(c2ccc(-c3cnn(C(F)F)c3)cc2)NC(=N)N([C@H](COC(=O)Nc2ccccn2)c2ccc(Cl)c(-n3ncnc3C(F)F)c2)C1=O` [Compound 181], the EC50 under setting [1] came to 29 nM.
Same read-out and setting: the figure for `[H]/N=C1\N[C@](CC(C)(C)C)(c2ccc(-c3cnn(C(F)F)c3)cc2)C(=O)N1[C@H](COC(=O)NC1CC1)c1ccc(Cl)c(-c2nccc(OC)n2)c1` [Compound 15, (S)-2-(4-chloro-3-(4-methoxypyrimidin-2-yl)phenyl)-2-((R)-4-(4-(1-(difluoromethyl)-1H-pyrazol-4-yl)phenyl)-2-imino-4-neopentyl-5-oxoimidazolidin-1-yl)ethyl cyclopropylcarbamate] is 230 nM.
Turning to `Cn1nnc(-c2ccc([C@@]3(CC(C)(C)C)NC(=N)N([C@H](COC(=O)NC4(C(F)(F)F)CC4)c4ccc(Cl)c(-n5ncnc5C(F)F)c4)C3=O)cc2)n1` [Compound 357], under setting [1], the EC50 is 10.6 nM.
For the molecule `CC(C)(C)C[C@]1(c2ccc(-c3ncn(C4CC4)n3)cc2F)NC(=N)N([C@H](COC(=O)NC2(C(F)(F)F)CC2)c2ccc(Cl)c(-c3ncnn3C(F)F)c2)C1=O` [Compound 142], the EC50 under setting [1] was found to be 10.1 nM.
Same read-out and setting: the result for `Cc1nnc(-c2cc([C@@H](COC(=O)NC3CC3)N3C(=N)N[C@](CC(C)(C)C)(c4ccc(-c5cnn(C(F)F)c5)cc4)C3=O)ccc2Cl)[nH]1` [Compound 40] reads 84.1 nM.
The same measure, in the same setting: the figure for `CC(C)(C)C[C@]1(c2ccc(-c3ncccn3)cc2F)NC(=N)N([C@H](COC(=O)NC2(C(F)(F)F)CC2)c2ccc(Cl)c(-n3ncnc3C(F)F)c2)C1=O` [Compound 197] is 11.2 nM.
With `CN(C)C(=O)OC[C@H](c1ccc(Cl)c(-c2nc(-c3ccccc3)cs2)c1)N1C(=N)N[C@@](c2cc(F)cc(F)c2)(C2CC2)C1=O` [Compound 6], under setting [1], the EC50 turned out to be 5710 nM.
On to `CC(C)(C)C[C@]1(c2ccc(-c3cnn(C(F)F)c3)cc2)NC(=N)N([C@H](COC(=O)Nc2ccccc2)c2ccc(Cl)c(-c3ncn[nH]3)c2)C1=O` [Compound 107], for which the EC50 under setting [1] worked out at 49.1 nM.
Same read-out and setting: the result for `COc1ccc([C@@]2(CC(C)(C)C)NC(=N)N([C@H](COC(=O)NC3(C(F)(F)F)CC3)c3ccc(Cl)c(-n4ncnc4C(F)F)c3)C2=O)c(F)c1F` [Compound 228] reads 14.3 nM.
On to `CC(C)(Cl)C[C@]1(c2ccc(-c3cnn(C(F)F)c3)cc2)NC(=N)N([C@H](COC(=O)NC2(C(F)(F)F)CC2)c2ccc(Cl)c(-c3ncnn3C(F)F)c2)C1=O` [Compound 145], for which the half-maximal effective concentration (EC50) under setting [1] is 228 nM.
With `CC(C)(C)C[C@]1(c2ccc(-c3ccnn3C(F)F)cc2)NC(=N)N([C@H](COC(=O)NC2(C(F)(F)F)CC2)c2ccc(Cl)c(-n3ncnc3C(F)F)c2)C1=O` [Compound 213], where the note is “MT-4 cells, HIV-1, read-out: MT4 EC50”, the 50% effective concentration (EC50) came out at 25.5 nM.
As to `CC(C)(C)C[C@]1(c2ccc(-c3ncccn3)cc2)NC(=N)N([C@H](COC(=O)NC2(C(F)(F)F)CC2)c2ccc(Cl)c(-c3ncnn3C(F)F)c2)C1=O` [Compound 117], the 50% effective concentration (EC50) under setting [1] was found to be 6.81 nM.
As to `CC1(NC(=O)OC[C@H](c2ccc(Cl)c(-n3cccn3)c2)N2C(=N)N[C@](CC(C)(C)C(F)(F)F)(c3ccc(Cl)cc3)C2=O)CC1` [Compound 263], under setting [1], the EC50 turned out to be 748 nM.
Consider `CC(C)(C)C[C@]1(c2ccc(N3CCn4c(nnc4C(F)(F)F)C3)cc2)NC(=N)N([C@H](COC(=O)NC2(C(F)(F)F)CC2)c2ccc(Cl)c(-n3ncnc3C(F)F)c2)C1=O` [Compound 326], for which the EC50 under setting [1] was 52.9 nM.
Still for that read-out and setting: the figure for `CC(C)(C)C[C@]1(c2ccc(-c3cnn(C4CC4)c3)c(F)c2)NC(=N)N([C@H](COC(=O)NC2CC2(F)F)c2ccc(Cl)c(-n3ncnc3C(F)F)c2)C1=O` (stereo partly drawn) [Compound 298] is 7.83 nM; for `CC(C)(C)C[C@]1(c2ccc(-c3ncccn3)cc2)NC(=N)N([C@H](COC(=O)NC(C)(C)C(F)(F)F)c2ccc(Cl)c(-n3ncnc3C(F)F)c2)C1=O` [Compound 189] it is 9.12 nM.
On the same count and under the same terms, the result for `CC(C)(C)C[C@]1(c2ccc(-c3cnn(C(F)F)c3)cc2)NC(=N)N([C@H](COC(=O)N2CC(C)(C)C2)c2ccc(Cl)c(-c3ncn[nH]3)c2)C1=O` [Compound 75] reads 30.5 nM; that for `CC(C)(C)C[C@]1(c2ccc(-c3ccccn3)cc2)NC(=N)N([C@H](COC(=O)NC(C)(C)C)c2ccc(Cl)c(-n3ncnc3C(F)F)c2)C1=O` [Compound 191], 9.69 nM; that for `C[C@H](C(=O)NC[C@H](c1ccc(Cl)c(-c2ncnn2C(F)F)c1)N1C(=N)N[C@](CC(C)(C)C(F)(F)F)(c2ccc(-c3cnn(C4CC4)n3)cc2)C1=O)C(F)(F)F` [Compound 161], 14.3 nM.
Same read-out and setting: the figure for `CC(C)(C)C[C@]1(c2ccc(-c3cnn(S(C)(=O)=O)c3)c(F)c2)NC(=N)N([C@H](COC(=O)NC2CC2(F)F)c2ccc(Cl)c(-n3ncnc3C(F)F)c2)C1=O` (stereo partly drawn) [Compound 293] is 10.5 nM.
